US8609836B2, “4-aryl-2-anilino-pyrimidines” (Janssen Pharmaceutica NV, priority 2008, dated 2013)

Columns and labels:
Assay type in all cases: biochemical
GSK3β (h) = GSK3β (h) (Homo sapiens, UniProt P49841); test: GSK-3β human kinase inhibition, SPA; settings: read-out: GSK3b pIC50 (converted)
Outline: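 Radiometric: 33P-labelled peptide captured on streptavidin SPA beads after EDTA stop and imaged on Leadseeker. Reaction ran 1 h at RT, 1 μM cold ATP with 2 nM [γ-33P]ATP, 1 μM biotin-peptide substrate, human GSK3β 1 μg/ml, pH 7.4 Tris buffer.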

PLK4 (h) = PLK4 (h) (Homo sapiens, UniProt O00444); test: PLK-4 human kinase inhibition, scintillation proximity assay (SPA); settings: read-out: PLK4 pIC50 (converted)
Sequence of PLK4 (h) (O00444 whole entry): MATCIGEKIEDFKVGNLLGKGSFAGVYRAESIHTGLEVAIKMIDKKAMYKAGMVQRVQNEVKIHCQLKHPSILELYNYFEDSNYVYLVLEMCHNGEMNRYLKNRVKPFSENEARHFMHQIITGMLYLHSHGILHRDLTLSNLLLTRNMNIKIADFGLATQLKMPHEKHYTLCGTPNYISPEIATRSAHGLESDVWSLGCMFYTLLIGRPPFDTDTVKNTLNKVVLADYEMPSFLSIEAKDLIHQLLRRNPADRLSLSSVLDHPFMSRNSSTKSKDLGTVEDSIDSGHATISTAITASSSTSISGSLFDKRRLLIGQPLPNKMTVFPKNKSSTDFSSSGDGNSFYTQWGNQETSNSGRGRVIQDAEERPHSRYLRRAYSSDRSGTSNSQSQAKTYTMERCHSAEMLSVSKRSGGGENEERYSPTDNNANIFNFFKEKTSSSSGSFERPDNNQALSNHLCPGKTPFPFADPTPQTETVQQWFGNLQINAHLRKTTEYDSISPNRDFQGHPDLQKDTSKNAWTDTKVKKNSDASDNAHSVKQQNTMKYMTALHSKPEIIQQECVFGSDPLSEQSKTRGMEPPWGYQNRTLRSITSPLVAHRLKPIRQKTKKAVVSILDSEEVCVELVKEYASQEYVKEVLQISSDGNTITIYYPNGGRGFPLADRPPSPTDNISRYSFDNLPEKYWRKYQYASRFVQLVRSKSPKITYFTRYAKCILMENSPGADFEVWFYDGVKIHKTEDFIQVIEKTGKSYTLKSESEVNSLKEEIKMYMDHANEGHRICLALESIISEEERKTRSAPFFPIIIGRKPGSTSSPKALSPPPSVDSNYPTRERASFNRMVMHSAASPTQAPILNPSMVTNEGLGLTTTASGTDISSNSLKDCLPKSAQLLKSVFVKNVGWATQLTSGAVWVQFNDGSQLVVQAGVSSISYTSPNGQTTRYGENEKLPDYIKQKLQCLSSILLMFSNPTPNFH

PLK1 T210D (h) = PLK1 T210D (h) (Homo sapiens, UniProt P53350, T210D); test: PLK1 human kinase inhibition, SPA; settings: read-out: PLK1 pIC50 (converted)
Sequence of PLK1 T210D (h) (P53350 whole entry T210D): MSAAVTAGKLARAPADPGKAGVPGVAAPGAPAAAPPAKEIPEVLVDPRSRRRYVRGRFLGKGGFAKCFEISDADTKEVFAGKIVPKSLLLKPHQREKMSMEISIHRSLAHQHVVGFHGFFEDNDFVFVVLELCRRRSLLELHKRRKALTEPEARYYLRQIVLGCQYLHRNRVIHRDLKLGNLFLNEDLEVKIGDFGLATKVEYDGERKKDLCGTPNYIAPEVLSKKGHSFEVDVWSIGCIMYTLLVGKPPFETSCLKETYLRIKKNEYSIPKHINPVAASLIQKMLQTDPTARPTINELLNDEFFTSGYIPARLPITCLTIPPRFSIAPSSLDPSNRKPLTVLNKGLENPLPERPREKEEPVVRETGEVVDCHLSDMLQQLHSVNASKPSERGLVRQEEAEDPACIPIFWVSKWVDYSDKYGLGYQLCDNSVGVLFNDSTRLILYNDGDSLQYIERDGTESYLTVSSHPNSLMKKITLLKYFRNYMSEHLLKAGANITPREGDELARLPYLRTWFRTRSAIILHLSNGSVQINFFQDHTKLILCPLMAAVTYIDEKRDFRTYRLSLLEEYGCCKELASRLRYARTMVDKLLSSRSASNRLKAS
Outline: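 Kinase incubated 40 min at room temperature with 0.1 μM ATP (2 nM [γ-33P]ATP tracer), 2 μM biotinylated peptide, pH 8.0 Hepes buffer with 2 mM MnCl2 and 1 mM DTT; enzyme at 0.125 ng/ml. Stopped with EDTA; 33P-peptide bound to streptavidin scintillant beads and imaged.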

Sequence of GSK3β (h) (P49841 whole entry): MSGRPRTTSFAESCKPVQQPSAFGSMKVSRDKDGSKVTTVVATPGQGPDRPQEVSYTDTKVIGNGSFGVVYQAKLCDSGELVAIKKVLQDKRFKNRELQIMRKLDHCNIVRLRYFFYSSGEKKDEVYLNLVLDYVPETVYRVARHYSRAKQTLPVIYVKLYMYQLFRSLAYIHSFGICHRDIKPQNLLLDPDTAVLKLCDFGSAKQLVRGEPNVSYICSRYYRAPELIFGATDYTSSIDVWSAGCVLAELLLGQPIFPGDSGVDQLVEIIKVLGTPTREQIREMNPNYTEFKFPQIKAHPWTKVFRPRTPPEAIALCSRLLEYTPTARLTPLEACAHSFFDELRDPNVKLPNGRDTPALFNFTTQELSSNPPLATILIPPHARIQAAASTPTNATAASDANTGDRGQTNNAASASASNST

Row | SMILES | IC50 (GSK3β (h)) [nM] | IC50 (PLK4 (h)) [nM] | IC50 (PLK1 T210D (h)) [nM]
1 | COc1ccc2cc1CN[C@@H](CO)C(=O)N(C)CCCN(C)c1ccc(cn1)-c1ccnc(n1)N2 [Compound 11] | 2090 | 933 | > 10000
2 | O=C1NCc2ccc(cc2)-c2ccnc(n2)Nc2ccc(N3CCOCC3)c(c2)CN2CCC1CC2 [Compound 12] | ~10500 | 490 | > 10000
3 | O=C1NCc2cc(ccc2N2CCOCC2)Nc2nccc(n2)-c2cccc(c2)CN2CCC[C@@H]12 [Compound 15] | 372 | 575 | > 10000
4 | COc1cc2cc(c1OC)CN1CCC[C@H]1C(=O)N(C)CCN(C)c1cc(ccn1)-c1ccnc(n1)N2 [Compound 17] | 851 | 2690 | > 10000
5 | O=C1NCc2cccc(c2)-c2ccnc(n2)Nc2ccc(N3CCOCC3)c(c2)CN[C@H]1Cc1ccccc1 [Compound 18] | 389 | 646 | > 10000
6 | O=C1CN2CCN(CC2)Cc2cc(ccc2N2CCOCC2)Nc2nccc(n2)-c2cccc(c2)CN1 [Compound 20] | 6030 | 5250 | > 10000
7 | COc1cc2cc(c1OC)CN1CCC[C@H]1C(=O)NCc1cccc(c1)-c1ccnc(n1)N2 [Compound 23] | 195 | 74.1 | > 10000
8 | CN1CCN(C(=O)c2ccc3cc2CN2CCC[C@H]2C(=O)NCc2cccc(c2)-c2ccnc(n2)N3)CC1 [Compound 25] | 81.3 | 93.3 | > 10000
9 | O=C1NCc2cccc(c2)-c2ccnc(n2)Nc2ccc(C(=O)N3CCOCC3)c(c2)CN2CCC[C@@H]12 [Compound 26] | 67.6 | 97.7 | > 10000
10 | O=C1NCc2cccc(c2)-c2ccnc(n2)Nc2ccc(N3CCOCC3)c(c2)CN2C[C@@H](O)C[C@@H]12 [Compound 27] | 141 | 110 | > 10000
11 | O=C1NCc2cccc(c2)-c2ccnc(n2)Nc2cc(cc(C(=O)N3CCOCC3)c2)CN2CCC[C@@H]12 [Compound 32] | 186 | 178 | > 10000
12 | CN1CCN(C(=O)c2cc3cc(c2)Nc2nccc(n2)-c2cccc(c2)CNC(=O)[C@@H]2CCCN2C3)CC1 [Compound 34] | 525 | 186 | > 10000
13 | CN(C)C(=O)c1cc2cc(c1)Nc1nccc(n1)-c1cccc(c1)CNC(=O)[C@@H]1CCCN1C2 [Compound 35] | 204 | 204 | > 10000
14 | O=C(NC1CCOCC1)c1cc2cc(c1)Nc1nccc(n1)-c1cccc(c1)CNC(=O)[C@@H]1CCCN1C2 [Compound 37] | 676 | 245 | > 10000
15 | CN1CCC(NC(=O)c2cc3cc(c2)Nc2nccc(n2)-c2cccc(c2)CNC(=O)[C@@H]2CCCN2C3)CC1 [Compound 38] | 186 | 263 | > 10000
16 | CN(C)CCNC(=O)c1cc2cc(c1)Nc1nccc(n1)-c1cccc(c1)CNC(=O)[C@@H]1CCCN1C2 [Compound 39] | 363 | 282 | > 10000
17 | O=C1NCc2cc(ccc2N2CCOCC2)Nc2nccc(n2)-c2cccc(c2)CCN2CCC[C@@H]12 [Compound 43] | 186 | 363 | > 10000
18 | COCCNC(=O)c1cc2cc(c1)Nc1nccc(n1)-c1cccc(c1)CNC(=O)[C@@H]1CCCN1C2 [Compound 44] | 166 | 407 | > 10000
19 | O=C1NCc2cccc(c2)-c2ccnc(n2)Nc2cccc(c2)CN2C[C@@H](O)C[C@@H]12 [Compound 45] | 72.4 | 417 | > 10000
20 | CN1CCC(NC(=O)c2ccc3cc2CN2CCC[C@H]2C(=O)NCc2cccc(c2)-c2ccnc(n2)N3)CC1 [Compound 47] | 398 | 646 | > 10000

Row | SMILES | IC50 (GSK3β (h)) [nM] | IC50 (PLK4 (h)) [nM] | IC50 (PLK1 T210D (h)) [nM]
21 | O=C1NCc2ccc(cc2)-c2ccnc(n2)Nc2ccc(N3CCOCC3)c(c2)CN2CCC[C@@H]12 [Compound 49] | > 10000 | 5890 | > 10000
22 | O=C1NCc2cccc(c2)-c2ccnc(n2)Nc2cc(ccc2Cl)CN2CCC[C@@H]12 [Compound 51] | > 10000 | > 10000 | > 10000
23 | O=C1NCc2cccc(c2)-c2ccnc(n2)Nc2cc(ccc2Cl)CN2C[C@H](O)C[C@@H]12 [Compound 52] | > 10000 | > 10000 | > 10000
24 | O=C1NCc2cccc(c2)-c2ccnc(n2)Nc2ccc(cc2)CN2CCC[C@@H]12 [Compound 54] | > 10000 | > 10000 | > 10000
25 | O=C1NCc2cccc(c2)-c2ccnc(n2)Nc2ccc(cc2)CN2C[C@H](O)C[C@@H]12 [Compound 55] | > 10000 | > 10000 | > 10000
26 | O=C1NCc2ccc(cc2)-c2ccnc(n2)Nc2ccc(N3CCOCC3)c(c2)CN2C[C@H](O)C[C@@H]12 [Compound 56] | > 10000 | ~10000 | > 10000
27 | O=C1NCc2cccc(c2)-c2ccnc(n2)Nc2ccccc2CN2CCC[C@@H]12 [Compound 57] | > 10000 | > 10000 | > 10000
28 | CC(C)(C)O[C@@H]1C[C@H]2C(=O)NCc3cccc(c3)-c3ccnc(n3)Nc3ccccc3CN2C1 [Compound 58] | > 10000 | > 10000 | > 10000
29 | COc1cc2cc(c1)Nc1nccc(n1)-c1ccc(cc1)CN(C)CCNC(=O)C1CCN(CC1)C2 [Compound 62] | 1910 | 871 | > 10000
30 | CC(C)Nc1cc2cc(c1)Nc1nccc(n1)-c1ccc(cc1)CN(C)CCCNC(=O)C1CCN(CC1)C2 [Compound 65] | 3240 | 1230 | > 10000
31 | COc1cc2cc(c1)Nc1nccc(n1)-c1ccc(cc1)CN(C)CCCNC(=O)C1CCN(CC1)C2 [Compound 66] | 1070 | 1350 | > 10000
32 | COc1cc2cc(c1)Nc1nccc(n1)-c1ccc(OC)c(c1)CN(C)CCNC(=O)C1CCN(CC1)C2 [Compound 67] | 3090 | 1510 | > 10000
33 | COc1cc2cc(c1)Nc1nccc(n1)-c1ccc(OC)c(c1)CN(C)CCCNC(=O)C1CCN(CC1)C2 [Compound 73] | > 10000 | 2570 | > 10000
34 | COc1ccc2cc1CN(C)CCNC(=O)C1CCN(CC1)Cc1cc(NCCc3ccccc3)cc(c1)Nc1nccc-2n1 [Compound 74] | > 10000 | 2950 | > 10000
35 | O=C1NCCOc2cccc(c2)-c2ccnc(n2)Nc2ccc(N3CCOCC3)c(c2)CN2CCC1CC2 [Compound 94] | 2950 | 2630 | > 10000
36 | O=C1NCc2cccc(c2)-c2ccnc(n2)Nc2ccc(N3CCOCC3)c(c2)CN2CCC1CC2 [Compound 95] | 3720 | 6610 | > 10000
37 | C[C@@H]1NCCc2cccc(c2)-c2ccnc(n2)Nc2ccc(N3CCOCC3)c(c2)CNC1=O [Compound 100] | 75.9 | 1150 | > 10000
38 | C[C@@H]1NCc2cccc(c2)-c2ccnc(n2)Nc2ccc(N3CCOCC3)c(c2)CNC1=O [Compound 101] | 182 | 1820 | > 10000
39 | O=C1CN2CCN(CC2)Cc2cc(ccc2N2CCOCC2)Nc2nccc(n2)-c2cccc(c2)OCCN1 [Compound 102] | 240 | 794 | > 10000
